In PubChem BioAssay (NCI):
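Dose response: 5 concentrations. Exposure: 48 h. Format: 96-well plates. Endpoint: linear interpolation; highest concentration if not reached. TGI is the concentration that stops growth completely.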

Assays:
Experiment in all cases: growth of human tumour cells (NCI), 48 h
HL-60(TB) leukemia = test system: HL-60(TB) leukemia
U251 CNS = test system: U251 CNS
PC-3 prostate = test system: PC-3 prostate
UACC-257 melanoma = test system: UACC-257 melanoma
HCC-2998 colon = test system: HCC-2998 colon
SK-MEL-5 melanoma = test system: SK-MEL-5 melanoma
MDA-N = test system: MDA-N
SF-539 CNS = test system: SF-539 CNS
NCI-H522 lung = test system: NCI-H522 lung
HOP-62 NSCLC = test system: HOP-62 NSCLC
A549 NSCLC = test system: A549 NSCLC
M14 melanoma = test system: M14 melanoma
MDA-MB-435 = test system: MDA-MB-435
SR leukemia = test system: SR leukemia
COLO 205 colon = test system: COLO 205 colon
UO-31 renal = test system: UO-31 renal
SNB-75 CNS = test system: SNB-75 CNS
SF-295 CNS = test system: SF-295 CNS
OVCAR-4 ovarian = test system: OVCAR-4 ovarian
SF-268 CNS = test system: SF-268 CNS
T-47D breast = test system: T-47D breast
MOLT-4 leukemia = test system: MOLT-4 leukemia
NCI-H460 lung = test system: NCI-H460 lung
SN12C renal = test system: SN12C renal
OVCAR-8 ovarian = test system: OVCAR-8 ovarian
CCRF-CEM leukemia = test system: CCRF-CEM leukemia
HT29 colon = test system: HT29 colon
ACHN renal = test system: ACHN renal
K-562 leukemia = test system: K-562 leukemia
786-0 renal = test system: 786-0 renal
HS 578T breast = test system: HS 578T breast
HCT-15 colon = test system: HCT-15 colon
RPMI-8226 leukemia = test system: RPMI-8226 leukemia
IGROV1 ovarian = test system: IGROV1 ovarian
OVCAR-5 ovarian = test system: OVCAR-5 ovarian
MDA-MB-231 breast = test system: MDA-MB-231 breast
KM12 colon = test system: KM12 colon
MCF7 breast = test system: MCF7 breast
NCI/ADR-RES ovarian = test system: NCI/ADR-RES ovarian
EKVX NSCLC = test system: EKVX NSCLC
SNB-19 CNS = test system: SNB-19 CNS
SW-620 colon = test system: SW-620 colon
SK-MEL-28 melanoma = test system: SK-MEL-28 melanoma
SK-OV-3 ovarian = test system: SK-OV-3 ovarian
HCT-116 colon = test system: HCT-116 colon
TK-10 renal = test system: TK-10 renal
OVCAR-3 ovarian = test system: OVCAR-3 ovarian
DU-145 prostate = test system: DU-145 prostate
SK-MEL-2 melanoma = test system: SK-MEL-2 melanoma
CAKI-1 renal = test system: CAKI-1 renal
UACC-62 melanoma = test system: UACC-62 melanoma
LOX IMVI melanoma = test system: LOX IMVI melanoma
NCI-H23 lung = test system: NCI-H23 lung
A498 renal = test system: A498 renal
MALME-3M melanoma = test system: MALME-3M melanoma
NCI-H226 lung = test system: NCI-H226 lung
RXF 393 renal = test system: RXF 393 renal
HOP-92 NSCLC = test system: HOP-92 NSCLC

Measured: TGI

O=C1CN(c2cccc(C(F)(F)F)c2)C(=O)CN1CCN1CC(=O)N(c2cccc(C(F)(F)F)c2)CC1=O
> 100 µM: HL-60(TB) leukemia | U251 CNS | PC-3 prostate | UACC-257 melanoma | HCC-2998 colon | SK-MEL-5 melanoma | MDA-N | SF-539 CNS | NCI-H522 lung | HOP-62 NSCLC | A549 NSCLC | M14 melanoma | MDA-MB-435 | SR leukemia | COLO 205 colon | UO-31 renal | SNB-75 CNS | SF-295 CNS | OVCAR-4 ovarian | SF-268 CNS | T-47D breast | MOLT-4 leukemia | NCI-H460 lung | SN12C renal | OVCAR-8 ovarian | CCRF-CEM leukemia | HT29 colon | ACHN renal | K-562 leukemia | 786-0 renal | HS 578T breast | HCT-15 colon | RPMI-8226 leukemia | IGROV1 ovarian | OVCAR-5 ovarian | MDA-MB-231 breast | KM12 colon | MCF7 breast | NCI/ADR-RES ovarian | EKVX NSCLC | SNB-19 CNS | SW-620 colon | SK-MEL-28 melanoma | SK-OV-3 ovarian | HCT-116 colon | TK-10 renal

Cc1ccc(S(=O)(=O)N(CCNC(=O)c2cccc(O)c2O)c2cc3c4c(c2)Oc2cccc5c2C4(C)c2c(cccc2O3)O5)cc1
58 µM: NCI/ADR-RES ovarian
65.8 µM: NCI-H226 lung
> 100 µM: U251 CNS | PC-3 prostate | OVCAR-3 ovarian | UACC-257 melanoma | HCC-2998 colon | SK-MEL-5 melanoma | DU-145 prostate | MDA-N | SF-539 CNS | HOP-62 NSCLC | A549 NSCLC | M14 melanoma | MDA-MB-435 | SR leukemia | UO-31 renal | SNB-75 CNS | SF-295 CNS | OVCAR-4 ovarian | SF-268 CNS | T-47D breast | MOLT-4 leukemia | SK-MEL-2 melanoma | NCI-H460 lung | SN12C renal | CAKI-1 renal | OVCAR-8 ovarian | HT29 colon | ACHN renal | K-562 leukemia | 786-0 renal | HS 578T breast | HCT-15 colon | UACC-62 melanoma | RPMI-8226 leukemia | IGROV1 ovarian | OVCAR-5 ovarian | LOX IMVI melanoma | MDA-MB-231 breast | KM12 colon | MCF7 breast | EKVX NSCLC | SNB-19 CNS | SW-620 colon | NCI-H23 lung | A498 renal | MALME-3M melanoma | SK-MEL-28 melanoma | SK-OV-3 ovarian | HCT-116 colon | TK-10 renal

CCN(CC)CCC1CCCCN1CC(=O)N1c2cc(Cl)ccc2NC(=O)CC1C (centres undefined)
> 100 µM: HL-60(TB) leukemia | U251 CNS | PC-3 prostate | OVCAR-3 ovarian | HCC-2998 colon | SK-MEL-5 melanoma | DU-145 prostate | MDA-N | SF-539 CNS | NCI-H522 lung | HOP-62 NSCLC | A549 NSCLC | M14 melanoma | MDA-MB-435 | COLO 205 colon | UO-31 renal | SF-295 CNS | RXF 393 renal | OVCAR-4 ovarian | SF-268 CNS | T-47D breast | MOLT-4 leukemia | SK-MEL-2 melanoma | NCI-H460 lung | SN12C renal | CAKI-1 renal | OVCAR-8 ovarian | HOP-92 NSCLC | CCRF-CEM leukemia | HT29 colon | ACHN renal | K-562 leukemia | 786-0 renal | HS 578T breast | HCT-15 colon | UACC-62 melanoma | RPMI-8226 leukemia | IGROV1 ovarian | OVCAR-5 ovarian | LOX IMVI melanoma | MDA-MB-231 breast | KM12 colon | MCF7 breast | EKVX NSCLC | SNB-19 CNS | NCI-H23 lung | A498 renal | MALME-3M melanoma | SK-MEL-28 melanoma | SK-OV-3 ovarian | NCI-H226 lung | HCT-116 colon | TK-10 renal

CCOC(=O)N1CCC2(CC1)C[C@@](C(C)=O)(c1ccccc1)C(C)O2 (some centres undefined)
91.4 µM: T-47D breast
> 100 µM: HL-60(TB) leukemia | U251 CNS | PC-3 prostate | OVCAR-3 ovarian | UACC-257 melanoma | HCC-2998 colon | SK-MEL-5 melanoma | DU-145 prostate | MDA-N | SF-539 CNS | NCI-H522 lung | HOP-62 NSCLC | A549 NSCLC | M14 melanoma | MDA-MB-435 | COLO 205 colon | UO-31 renal | SNB-75 CNS | SF-295 CNS | OVCAR-4 ovarian | SF-268 CNS | MOLT-4 leukemia | SK-MEL-2 melanoma | NCI-H460 lung | CAKI-1 renal | OVCAR-8 ovarian | HOP-92 NSCLC | HT29 colon | ACHN renal | K-562 leukemia | 786-0 renal | HS 578T breast | HCT-15 colon | UACC-62 melanoma | RPMI-8226 leukemia | IGROV1 ovarian | OVCAR-5 ovarian | LOX IMVI melanoma | MDA-MB-231 breast | KM12 colon | MCF7 breast | NCI/ADR-RES ovarian | EKVX NSCLC | SNB-19 CNS | SW-620 colon | NCI-H23 lung | A498 renal | MALME-3M melanoma | SK-MEL-28 melanoma | SK-OV-3 ovarian | NCI-H226 lung | TK-10 renal
